Source: patent US20240317723A1, “SUBSTITUTED AMINO AZA-HETEROARYL COMPOUNDS AS INHIBITORS OF THE HAEMATOPOIETIC PROGENITOR KINASE 1 (HPK1)” (priority 2021, published 2024)

Key:
[1] = molecular target: T1, Recombinant (1-346) HPK1 (h) (Homo sapiens, UniProt Q92918); experiment: HPK1 Human STE Kinase Enzymatic Radiometric Assay; assay type: biochemical; conditions: [gamma-33P]-ATP, myelin basic protein substrate, read-out: HPK1 IC50 nM Range*
T1 construct: Recombinant (1-346) HPK1 (h) is incubated with 8 mM MOPS pH 7.0
T1 sequence (Q92918 1-346): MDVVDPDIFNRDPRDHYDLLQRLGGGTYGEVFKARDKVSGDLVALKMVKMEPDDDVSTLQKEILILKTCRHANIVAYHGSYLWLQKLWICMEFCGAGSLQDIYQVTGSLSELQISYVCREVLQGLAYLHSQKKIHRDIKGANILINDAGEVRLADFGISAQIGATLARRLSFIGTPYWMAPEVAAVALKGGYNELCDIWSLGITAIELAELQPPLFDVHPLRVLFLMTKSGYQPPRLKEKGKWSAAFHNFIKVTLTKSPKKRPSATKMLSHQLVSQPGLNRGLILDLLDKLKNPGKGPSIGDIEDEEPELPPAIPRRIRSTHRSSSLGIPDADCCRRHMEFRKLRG
Procedure: (a) HPK1 Human STE Kinase Enzymatic Radiometric Assay
A stock solution of 10 mM of test compound is prepared in DMSO. The compound plate was prepared by 3-fold and 9-point serial dilutions. Recombinant (1-346) HPK1 (h) is incubated with 8 mM MOPS pH 7.0, 0.2 mM EDTA, 0.33 mg/mL myelin basic protein, 10 mM MgAcetate and [gamma-33P]-ATP (specific activity and concentration as required). The reaction is initiated by the addition of the Mg/ATP mix. After incubation for 40 minutes at RT, the reaction is stopped by the addition of phosphoric acid to a concentration of 0.5%. 10 uL of the reaction is then spotted onto a P30 filtermat and washed four times for 4 minutes in 0.425% phosphoric acid and once in methanol prior to drying and scintillation counting. For more details of kinase assay protocols, see: Gao, Y. et. al.; Biochem J. 451 (2): 313-328, 2013.

Lck (h) = Lck (h) (Homo sapiens, UniProt P06239); experiment: Lck Human STE Kinase Enzymatic Radiometric Assay; assay type: biochemical; conditions: radiometric, [gamma-33P]-ATP, Cdc2 peptide substrate; read-out: Lck IC50, nM Range*
Procedure: (b) Lck Human STE Kinase Enzymatic Radiometric Assay
Lck (h) is incubated with 50 mM Tris pH 7.5, 0.1 mM EGTA, 0.1 mM Na3VO4, 250 uM KVEKIGEGTYGVVYK (Cdc2 peptide), 10 mM MgAcetate and [gamma-33P]-ATP (specific activity and concentration as required). The reaction is initiated by the addition of the Mg/ATP mix. After incubation for 40 minutes at room temperature, the reaction is stopped by the addition of phosphoric acid to a concentration of 0.5%. 10 uL of the reaction is then spotted onto a P30 filtermat and washed four times for 4 minutes in 0.425% phosphoric acid and once in methanol prior to drying and scintillation counting. For more details on the kinase assay procedures see: Gao, Y. et. al.; Biochem J., 451 (2): 313-328, 2013.
In some embodiments the presence of substituents on monocyclic Cy^2 rings or when Cy^2 is a bicyclic ring (unsubstituted or substituted) provides compounds with improved selectivity for inhibition of HPK1 vs Lck (see, for example, Table 3 and Table 4).

Chain of Lck (h) (P06239 whole entry): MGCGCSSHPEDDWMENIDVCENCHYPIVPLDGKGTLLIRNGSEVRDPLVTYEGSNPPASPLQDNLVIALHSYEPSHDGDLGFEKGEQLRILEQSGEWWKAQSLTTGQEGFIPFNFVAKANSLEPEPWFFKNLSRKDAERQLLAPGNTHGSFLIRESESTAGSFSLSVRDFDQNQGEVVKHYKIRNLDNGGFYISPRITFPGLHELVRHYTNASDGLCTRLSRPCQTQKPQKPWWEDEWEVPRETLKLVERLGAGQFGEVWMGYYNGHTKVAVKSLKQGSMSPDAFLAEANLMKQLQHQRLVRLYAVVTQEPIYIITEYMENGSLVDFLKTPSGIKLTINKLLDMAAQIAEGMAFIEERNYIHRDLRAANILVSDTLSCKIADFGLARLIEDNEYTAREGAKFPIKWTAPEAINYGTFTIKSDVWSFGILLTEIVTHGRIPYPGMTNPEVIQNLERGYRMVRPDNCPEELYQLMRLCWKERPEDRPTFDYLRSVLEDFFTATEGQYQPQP

IC50 [1] [nM]	IC50 (Lck (h)) [nM]	SMILES
0.1 to 5	11 to 20	Nc1ncc(-c2ccc(C3CCN(CC(F)(F)F)CC3)cc2)nc1-c1ccc2c(c1)CCNC2=O [Example I-36, 6-(3-amino-6-(4-(1-(2,2,2-trifluoroethyl)piperidin-4-yl)phenyl)pyrazin-2-yl)-3,4-dihydroisoquinolin-1(2H)-one]
0.1 to 5	6 to 10	CC(C)[C@@H]1CN(c2ccc(-c3cnc(N)c(-c4ccc5c(c4)CCNC5=O)n3)cc2)CCN1C [Example I-38, (R)-6-(3-amino-6-(4-(3-isopropyl-4-methylpiperazin-1-yl)phenyl)pyrazin-2-yl)-3,4-dihydroisoquinolin-1(2H)-one]
0.1 to 5	11 to 20	CC(C)[C@@H]1CN(c2ccc(-c3cnc(N)c(-c4ccc5c(c4)CCNC5=O)n3)c(F)c2)CCN1C [Example I-39, (R)-6-(3-amino-6-(2-fluoro-4-(3-isopropyl-4-methylpiperazin-1-yl)phenyl)pyrazin-2-yl)-3,4-dihydroisoquinolin-1(2H)-one]
0.1 to 5	6 to 10	CC(C)[C@H]1CN(c2ccc(-c3cnc(N)c(-c4ccc5c(c4)CCNC5=O)n3)cc2)CCN1C [Example I-40, (S)-6-(3-amino-6-(4-(3-isopropyl-4-methylpiperazin-1-yl)phenyl)pyrazin-2-yl)-3,4-dihydroisoquinolin-1(2H)-one]
0.1 to 5	21 to 200	CC(C)[C@H]1CN(c2ccc(-c3cnc(N)c(-c4ccc5c(c4)CCNC5=O)n3)c(F)c2)CCN1C [Example I-41, (S)-6-(3-amino-6-(2-fluoro-4-(3-isopropyl-4-methylpiperazin-1-yl)phenyl)pyrazin-2-yl)-3,4-dihydroisoquinolin-1(2H)-one]
0.1 to 5	11 to 20	C[C@@H]1CCCN1c1ccc(-c2cnc(N)c(-c3ccc4c(c3)CCNC4=O)n2)cc1 [Example I-42, (R)-6-(3-amino-6-(4-(2-methylpyrrolidin-1-yl)phenyl)pyrazin-2-yl)-3,4-dihydroisoquinolin-1(2H)-one]
6 to 10	21 to 200	C[C@@H]1CCCN1c1ccc(-c2cnc(N)c(-c3ccc4c(c3)CCNC4=O)n2)c(F)c1 [Example I-43, (R)-6-(3-amino-6-(2-fluoro-4-(2-methylpyrrolidin-1-yl)phenyl)pyrazin-2-yl)-3,4-dihydroisoquinolin-1(2H)-one]
0.1 to 5	11 to 20	CC(C)N1CCN(c2ccc(-c3cnc(N)c(-c4cc5c(cc4F)C(=O)NCC5)n3)cc2)CC1 [Example I-44, 6-(3-amino-6-(4-(4-isopropylpiperazin-1-yl)phenyl)pyrazin-2-yl)-7-fluoro-3,4-dihydroisoquinolin-1(2H)-one]
0.1 to 5	11 to 20	CN1C[C@H]2C[C@@]2(c2ccc(-c3cnc(N)c(-c4cc5c(cc4F)C(=O)NCC5)n3)cc2)C1 [Example I-45, 6-(3-amino-6-(4-((1R,5S)-3-methyl-3-azabicyclo[3.1.0]hexan-1-yl)phenyl)pyrazin-2-yl)-7-fluoro-3,4-dihydroisoquinolin-1(2H)-one]
0.1 to 5	11 to 20	CC(C)N1C[C@H]2C[C@@]2(c2ccc(-c3cnc(N)c(-c4cc5c(cc4F)C(=O)NCC5)n3)cc2)C1 [Example I-46, 6-(3-amino-6-(4-((1R,5S)-3-isopropyl-3-azabicyclo[3.1.0]hexan-1-yl)phenyl)pyrazin-2-yl)-7-fluoro-3,4-dihydroisoquinolin-1(2H)-one]
0.1 to 5	11 to 20	CN1C[C@@H]2C[C@]2(c2ccc(-c3cnc(N)c(-c4cc5c(cc4F)C(=O)NCC5)n3)cc2)C1 [Example I-47, 6-(3-amino-6-(4-((1S,5R)-3-methyl-3-azabicyclo[3.1.0]hexan-1-yl)phenyl)pyrazin-2-yl)-7-fluoro-3,4-dihydroisoquinolin-1(2H)-one]
0.1 to 5	11 to 20	CC(C)N1C[C@@H]2C[C@]2(c2ccc(-c3cnc(N)c(-c4cc5c(cc4F)C(=O)NCC5)n3)cc2)C1 [Example I-48, 6-(3-amino-6-(4-((1S,5R)-3-isopropyl-3-azabicyclo[3.1.0]hexan-1-yl)phenyl)pyrazin-2-yl)-7-fluoro-3,4-dihydroisoquinolin-1(2H)-one]
0.1 to 5	6 to 10	CN1CCN(c2ccc(-c3cnc(N)c(-c4ccc5c(c4)CCCNC5=O)n3)cc2)CC1 [Example I-50, 7-(3-amino-6-(4-(4-methylpiperazin-1-yl)phenyl)pyrazin-2-yl)-2,3,4,5-tetrahydro-1H-benzo[c]azepin-1-one]
0.1 to 5	6 to 10	Nc1ncc(-c2ccc([C@]34C[C@H]3CN(C3CC3)C4)cc2)nc1-c1cc2c(cc1F)C(=O)NCC2 [Example I-52, 6-(3-amino-6-(4-((1S,5R)-3-cyclopropyl-3-azabicyclo[3.1.0]hexan-1-yl)phenyl)pyrazin-2-yl)-7-fluoro-3,4-dihydroisoquinolin-1(2H)-one]
0.1 to 5	21 to 200	Cc1nc2cc(-c3nc(-c4ccc(C5CCOCC5)c(CN(C)C)c4)cnc3N)ccc2c(=O)[nH]1 [II-3, 7-(3-amino-6-(3-((dimethylamino)methyl)-4-(tetrahydro-2H-pyran-4-yl)phenyl)pyrazin-2-yl)-2-methylquinazolin-4(3H)-one]
0.1 to 5	21 to 200	Cc1[nH]c(=O)c2cc(F)c(-c3nc(-c4ccc(C5CCOCC5)c(CN(C)C)c4)cnc3N)cc2c1F [II-6, 6-(3-amino-6-(3-((dimethylamino)methyl)-4-(tetrahydro-2H-pyran-4-yl)phenyl)pyrazin-2-yl)-4,7-difluoro-3-methylisoquinolin-1(2H)-one]

SMILES	IC50 [1] [nM]	IC50 (Lck (h)) [nM]
Nc1ncc(-c2ccc([C@@]34C[C@@H]3CN(CCF)C4)cc2)nc1-c1ccc2c(c1)CCNC2=O [Example I-37, 6-(3-amino-6-(4-((1R,5S)-3-(2-fluoroethyl)-3-azabicyclo[3.1.0]hexan-1-yl)phenyl)pyrazin-2-yl)-3,4-dihydroisoquinolin-1(2H)-one]	0.1 to 5	6 to 10
